Results taken from US20160037775A1, “ACTIVE INGREDIENT COMBINATIONS HAVING INSECTICIDAL AND ACARICIDAL PROPERTIES” (priority 2010, published 2016).
Like-named read-outs stand apart in the source and are kept apart here.

How the values were obtained:
Assay type in all cases: in vivo
Phaedon cochleariae = assay: whole plant or invertebrate; conditions: for pest or weed control at 4 g/ha: Phaedon cochleariae, 144 h, read-out: Kill rate in % after 6 d
Excerpt: (§1) The expected action for a given combination of two active ingredients can be calculated according to S. R. Colby, Weeds 15 (1967), 20-22 as follows:
(§2) • X is the kill rate, expressed in % of the untreated control, in the case of use of active ingredient A in an application rate of m g/ha or in a concentration of m ppm, • Y is the kill rate, expressed in % of the untreated control, in the case of use of active ingredient B in an application rate of n g/ha or in a concentration of n ppm, and • E is the kill rate, expressed in % of the untreated control, in the case of use of active ingredients A and B in application rates of m and n g/ha or in a concentration of m and n ppm, then
(§3) If the actual kill rate is greater than that calculated, the kill rate of the combination is superadditive, which means that a synergistic effect is present. In this case, the kill rate actually observed must be greater than the value calculated from the above formula for the expected kill rate (E).
(§4) • 78 parts by weight of acetone • 1.5 parts by weight of dimethylformamide Emulsifier: 0.5 part by weight of alkylaryl polyglycol ether
(§5) To produce an appropriate active ingredient formulation, 1 part by weight of active ingredient is mixed with the stated amounts of solvent and emulsifier, and the concentrate is diluted with emulsifier-containing water to the desired concentration.
Cabbage leaves (Brassica oleracea) are treated by spraying with the active ingredient formulation of the desired concentration and populated with larvae of the mustard beetle (Phaedon cochleariae) while the leaves are still moist.
After the desired period of time, the kill rate in % is determined. 100% means that all beetle larvae have been killed; 0% means that none of the beetle larvae have been killed. The kill rates determined are entered into Colby's formula.

Myzus persicae = assay: whole plant or invertebrate
Excerpt: as §3, §4, §5
After the desired time, the kill in % is determined. 100% means that all aphids have been killed; 0% means that no aphids have been killed. The kill rates determined are entered into Colby's formula.

Tetranychus urticae = assay: Tetranychus test (OP-resistant/spray treatment); conditions: applied individually; for Kill rate in % after 2 d: 0.032 g/ha
Excerpt: as §1, §2, §3, §4, §5
Discs of bean leaves (Phaseolus vulgaris) infested by all stages of the two-spotted spider mite (Tetranychus urticae) are sprayed with an active ingredient formulation of the desired concentration.
After the desired period of time, the effect in % is determined. 100% means that all of the spider mites have been killed; 0% means that none of the spider mites have been killed.

[1] = Myzus persicae, 24 h, after 1 d, read-out: Kill rate in % after 1 d
[2] = Myzus persicae, 144 h, 0.16 g/ha, after 6 d, read-out: Kill rate in % after 6 d
[3] = Myzus persicae, 24 h, 0.16 g/ha, after 1 d, read-out: Kill rate in % after 1 d
[4] = Tetranychus urticae, 48 h, after 2 d, read-out: Kill rate in % after 2 d
[5] = Myzus persicae, 144 h, after 6 d, read-out: Kill rate in % after 6 d
[6] = Myzus persicae, 24 h, 0.8 g/ha, after 1 d, read-out: Kill rate in % after 1 d

Q: With `CN/C(=N/CC1CCOC1)N[N+](=O)[O-]` (stereo not drawn) [dinotefuran] as the compound, how does the “Kill rate in % after 2 d” value (Phaedon cochleariae; in vivo) read?
A: The value was 0%.

Q: Which results are given for `CN/C(=N\[N+](=O)[O-])NCc1cnc(Cl)s1` [clothianidin]?
A: pest or weed control at 20 g/ha (Myzus persicae; [1]): 70%; pest or weed control at 0.16 g/ha (Myzus persicae; [2]): 0%

Q: How did the pest or weed control at 20 g/ha (Myzus persicae; [1]) turn out when `CNC(=O)Oc1cccc2c1OC(C)(C)C2` [carbofuran] was run?
A: Its pest or weed control at 20 g/ha is 70%.

Q: For `COP(=O)(NC(C)=O)SC` (stereo not drawn) [acephate], which pest or weed control at 100 g/ha (Myzus persicae; Myzus persicae, 24 h, read-out: Kill rate in % after 1 d) is on record?
A: Its pest or weed control at 100 g/ha is 0%.

Q: And the pest or weed control at 4 g/ha (Phaedon cochleariae)?
A: Its pest or weed control at 4 g/ha is 0%.

Q: For `CC1(C)C(C=C(Cl)Cl)C1C(=O)OC(C#N)c1ccc(F)c(Oc2ccccc2)c1` (stereo not drawn) [β-cyfluthrin], which “Kill rate in % after 1 d” value (Myzus persicae; 0.032 g/ha, after 1 d) is on record?
A: The value was 0%.

Q: And the “Kill rate in % after 1 d” value (Myzus persicae; 0.16 g/ha, after 1 d)?
A: The value was 70%.

Q: And the “Kill rate in % after 2 d” value (Phaedon cochleariae; 0.032 g/ha, after 2 d)?
A: The value was 0%.

Q: `CC1(C)C(C=C(Cl)Cl)C1C(=O)OC(C#N)c1cccc(Oc2ccccc2)c1` (stereo not drawn) [alpha-cypermethrin] was tested. Which pest or weed control at 0.16 g/ha (Myzus persicae; [3]) did it give?
A: Its pest or weed control at 0.16 g/ha is 70%.

Q: And the pest or weed control at 4 g/ha (Tetranychus urticae; [4])?
A: Its pest or weed control at 4 g/ha is 0%.

Q: `CC1(C)[C@H](C=C(Cl)Cl)[C@H]1C(=O)OCc1c(F)c(F)cc(F)c1F` [transfluthrin] was tested. Which pest or weed control at 20 g/ha (Myzus persicae; [1]) did it give?
A: The pest or weed control at 20 g/ha was 70%.

Q: How did the pest or weed control at 4 g/ha (Myzus persicae; [1]) turn out when `CC[S+]([O-])c1c(C#N)nn(-c2c(Cl)cc(C(F)(F)F)cc2Cl)c1N` (stereo not drawn) [ethiprole] was run?
A: Its pest or weed control at 4 g/ha is 0%.

Q: How did the pest or weed control at 4 g/ha (Myzus persicae; [5]) turn out when `O=C(NC(=O)c1ccccc1Cl)Nc1ccc(OC(F)(F)F)cc1` [triflumuron] was run?
A: Its pest or weed control at 4 g/ha is 0%.

Q: What about the pest or weed control at 20 g/ha (Myzus persicae; [5]) of the same compound?
A: The pest or weed control at 20 g/ha was 0%.

Q: What about the pest or weed control at 4 g/ha (Phaedon cochleariae; 4 g/ha, after 6 d) of the same compound?
A: Its pest or weed control at 4 g/ha is 0%.

Q: Which “Kill rate in % after 6 d” value (Myzus persicae; 0.032 g/ha, after 6 d) does the source give for milbemectin here?
A: Its value is 0%.

Q: And the “Kill rate in % after 1 d” value (Myzus persicae; 0.8 g/ha, after 1 d)?
A: The value was 0%.

Q: What about the “Kill rate in % after 2 d” value (Tetranychus urticae; after 2 d) of the same compound?
A: The value was 50%.

Q: Which results are given for `CCOP(=S)(OCC)Oc1nc(Cl)c(Cl)cc1Cl` [chlorpyrifos]?
A: pest or weed control at 4 g/ha (Myzus persicae; [1]): 80%; pest or weed control at 100 g/ha (Tetranychus urticae; Tetranychus urticae, 144 h, 100 g/ha, after 6 d, read-out: Kill rate in % after 6 d): 0%

Q: With `CNC(=O)O/N=C/C(C)(C)SC` [aldicarb] as the compound, how does the pest or weed control at 0.8 g/ha (Myzus persicae; Myzus persicae, 144 h, 0.8 g/ha, after 6 d, read-out: Kill rate in % after 6 d) read?
A: Its pest or weed control at 0.8 g/ha is 0%.

Q: What about the “Kill rate in % after 2 d” value (Phaedon cochleariae; 0.8 g/ha, after 2 d) of the same compound?
A: Its value is 0%.

Q: What does the source list for `CCOP(=O)(SC(C)CC)SC(C)CC` (stereo not drawn) [cadusaphos]?
A: pest or weed control at 20 g/ha (Myzus persicae; [1]): 0%; pest or weed control at 20 g/ha (Tetranychus urticae; Tetranychus urticae, 144 h, 20 g/ha, after 6 d, read-out: Kill rate in % after 6 d): 0%

Q: How did the pest or weed control at 20 g/ha (Myzus persicae; [1]) turn out when `COP(N)(=O)SC` (stereo not drawn) [methamidophos] was run?
A: Its pest or weed control at 20 g/ha is 0%.

Q: What about the pest or weed control at 100 g/ha (Myzus persicae; Myzus persicae, 24 h, 100 g/ha, after 1 d, read-out: Kill rate in % after 1 d) of the same compound?
A: The pest or weed control at 100 g/ha was 80%.

Q: `CN1COCN(Cc2cnc(Cl)s2)/C1=N\[N+](=O)[O-]` [thiamethoxam] was tested. Which pest or weed control at 20 g/ha (Myzus persicae; [1]) did it give?
A: The pest or weed control at 20 g/ha was 70%.

Q: Which pest or weed control at 0.16 g/ha (Myzus persicae; [3]) does the source give for `CC(c1ccc(C(F)(F)F)nc1)S(C)(=O)=NC#N` (stereo not drawn) [sulfoxaflor] here?
A: Its pest or weed control at 0.16 g/ha is 0%.

Q: Which results are given for `N#Cc1nn(-c2c(Cl)cc(C(F)(F)F)cc2Cl)c(N)c1[S+]([O-])C(F)(F)F` (stereo not drawn) [fipronil]?
A: pest or weed control at 0.16 g/ha (Myzus persicae; [2]): 0%; Kill rate in % after 2 d (Phaedon cochleariae; 0.16 g/ha, after 2 d): 67%

Q: How did the “Kill rate in % after 1 d” value (Myzus persicae; 0.16 g/ha, after 1 d) turn out when emamectin benzoate was run?
A: Its value is 0%.

Q: What about the “Kill rate in % after 1 d” value (Myzus persicae; 0.8 g/ha, after 1 d) of the same compound?
A: Its value is 0%.

Q: What about the “Kill rate in % after 6 d” value (Phaedon cochleariae; 0.032 g/ha, after 6 d) of the same compound?
A: Its value is 0%.

Q: And the “Kill rate in % after 2 d” value (Tetranychus urticae; after 2 d)?
A: Its value is 0%.

Q: Which pest or weed control at 500 g/ha (Myzus persicae; Myzus persicae, 24 h, 500 g/ha, after 1 d, read-out: Kill rate in % after 1 d) does the source give for `CC(C)N1C(=O)N(c2ccccc2)CS/C1=N\C(C)(C)C` [buprofezin] here?
A: The pest or weed control at 500 g/ha was 0%.

Q: Which results are given for `Cc1c(COC(=O)[C@@H]2[C@H](/C=C(\Cl)C(F)(F)F)C2(C)C)cccc1-c1ccccc1` (racemic) [bifenthrin]?
A: pest or weed control at 0.8 g/ha (Myzus persicae; [6]): 80%; pest or weed control at 0.16 g/ha (Tetranychus urticae; Tetranychus urticae, 48 h, 0.16 g/ha, after 2 d, read-out: Kill rate in % after 2 d): 0%

Q: Which pest or weed control at 0.8 g/ha (Myzus persicae; [6]) does the source give for `CC1(C)[C@H](C(=O)O[C@H](C#N)c2cccc(Oc3ccccc3)c2)[C@@H]1/C=C\C(=O)OC(C(F)(F)F)C(F)(F)F` [acrinathrin] here?
A: The pest or weed control at 0.8 g/ha was 0%.

Q: And the pest or weed control at 0.8 g/ha (Tetranychus urticae; [4])?
A: Its pest or weed control at 0.8 g/ha is 0%.

Q: What about the pest or weed control at 4 g/ha (Tetranychus urticae; [4]) of the same compound?
A: Its pest or weed control at 4 g/ha is 20%.

Q: And the pest or weed control at 0.8 g/ha (Tetranychus urticae; Tetranychus urticae, 144 h, after 6 d, read-out: Kill rate in % after 6 d)?
A: The pest or weed control at 0.8 g/ha was 40%.
